BindingDB's records for doi:10.1016/j.ejmech.2023.115542 (University of Turin, 2023)

Assay: Inhibition of NLRP3-dependent pyroptosis in PMA-differentiated human THP-1 cells assessed as inhibition of LPS/ATP-induced cell death pretreated for 4 hrs with LPS followed by incubation with compound for 1 hr and later treated with ATP for 1.5 hrs by LDH assay

Question: Which IC50 does the source give for `CCOC(=O)Cn1nc(Cc2ccccc2Cl)oc1=O` here?
Answer: 1.55 µM
